This experiment concerns MX-1 breast xenograft, intrarenal, nude mice, tumor weight. The experiment can be described thus: NCI In Vivo Anticancer Drug Screen. Data for tumor model Human Mammary Carcinoma MX-1 Xenograft (intrarenal inoculation) in NU/NU BALB/C (nude) mice. To be noted: endpoint: mean tumor weight change, higher = larger tumour. In outline:
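Compounds were given to mice carrying transplanted tumors, and tumor size or survival was measured. Each value is the treated-group measurement (T) divided by the vehicle-treated control-group measurement (C).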

Setting [1] is: dose: 300.0 mg/kg/injection, schedule: Q04DX003 (ip), vehicle: saline.
[2] abbreviates: dose: 600.0 mg/kg/injection, schedule: Q04DX003 (ip), vehicle: saline.
Setting [3] is: dose: 1200.0 mg/kg/injection, schedule: Q04DX003 (ip), vehicle: saline.
Setting [4] is: dose: 75.0 mg/kg/injection, schedule: Q04DX003 (sc), vehicle: saline.
The mark [5] stands for this setting: dose: 150.0 mg/kg/injection, schedule: Q04DX003 (sc), vehicle: saline.
The mark [6] stands for this setting: dose: 25.0 mg/kg/injection, schedule: Q04DX003 (ip), vehicle: saline.
The mark [7] stands for this setting: dose: 12.5 mg/kg/injection, schedule: Q04DX003 (ip), vehicle: saline with Tween-80.
Setting [8] is: dose: 25.0 mg/kg/injection, schedule: Q04DX003 (ip), vehicle: saline with Tween-80.
The mark [9] stands for this setting: dose: 50.0 mg/kg/injection, schedule: Q04DX003 (ip), vehicle: saline with Tween-80.

Several values for one entry are separate records, joined by “and”; a condition that tells them apart may be missing. Identical values can stand only once. Records with an inconclusive call do not appear.

In the case of `C/C=C/C=C\C=C/C(O)CC(OP(=O)(O)O)C(C)(O)/C=C/C1CC=CC(=O)O1` (stereo not given), the T/C is 86 % of control (dose: 6.0 mg/kg/injection, schedule: Q04DX003 (ip), vehicle: water); 56 % of control (dose: 12.0 mg/kg/injection, schedule: Q04DX003 (ip), vehicle: water); 50 % of control (dose: 24.0 mg/kg/injection, schedule: Q04DX003 (ip), vehicle: water).

In the case of `N[C@@H](C[C@H]1CCC(=O)[C@@H]2O[C@H]12)C(=O)O`, the T/C reads like this: (dose: 150.0 mg/kg/injection, schedule: Q04DX003 (ip), vehicle: saline) 94 % of control; (dose: 150.0 mg/kg/injection, schedule: Q04DX003 (ip), vehicle: suspension in saline) 100 % of control; under setting [1], 90 % of control; (dose: 300.0 mg/kg/injection, schedule: Q04DX003 (ip), vehicle: suspension in saline) 75 % of control; under setting [2], 104 % of control; (dose: 600.0 mg/kg/injection, schedule: Q04DX003 (ip), vehicle: suspension in saline) 82 % of control. Moreover, the T/C under setting [3] was 47 % of control and the T/C (dose: 1200.0 mg/kg/injection, schedule: Q04DX003 (ip), vehicle: suspension in saline) was 62 % of control.

Take `Cc1nnc2ncccn12`: the T/C by setting is: (dose: 100.0 mg/kg/injection, schedule: Q04DX003 (sc), vehicle: saline) 86 % of control; (dose: 200.0 mg/kg/injection, schedule: Q04DX003 (sc), vehicle: saline) 104 % of control.

For `CCC(C(=O)O)C(=O)O.[NH2-].[NH2-].[Pt+2]`, the T/C was -27 % of control (dose: 37.5 mg/kg/injection, schedule: Q04DX003 (sc), vehicle: saline); -100 % of control (dose: 37.5 mg/kg/injection, schedule: Q04DX003 (sc), vehicle: suspension in saline); -100 % of control under setting [4]; -100 % of control (dose: 75.0 mg/kg/injection, schedule: Q04DX003 (sc), vehicle: suspension in saline); -100 % of control under setting [5]; -100 % of control (dose: 150.0 mg/kg/injection, schedule: Q04DX003 (sc), vehicle: suspension in saline).

Turning to `CCCn1c(SC)nc(COC(=O)NC)c1COC(=O)NC`, the T/C (dose: 30.0 mg/kg/injection, schedule: Q04DX003 (ip), vehicle: saline) was 62 % of control; the T/C (dose: 60.0 mg/kg/injection, schedule: Q04DX003 (ip), vehicle: saline) is 38 % of control; the T/C (dose: 120.0 mg/kg/injection, schedule: Q04DX003 (ip), vehicle: saline) is 7 % of control; the T/C (dose: 240.0 mg/kg/injection, schedule: Q04DX003 (ip), vehicle: saline) was -100 % of control.

Consider `Clc1ccc(CN2COc3c(ccc4cccnc34)C2)cc1Cl`, for which the T/C reads like this: (dose: 100.0 mg/kg/injection, schedule: Q01DX010 (sc), vehicle: saline with Tween-80) 91 % of control; (dose: 400.0 mg/kg/injection, schedule: Q01DX010 (sc), vehicle: saline with Tween-80) 71 % of control; (dose: 800.0 mg/kg/injection, schedule: Q01DX010 (sc), vehicle: saline with Tween-80) 44 % of control.

Consider `O=C[C@@H](CO)O[C@H](C=O)c1c[nH]c(=O)[nH]c1=O`, for which the T/C was 71 % of control under setting [6]; 54 % of control (dose: 37.5 mg/kg/injection, schedule: Q04DX003 (ip), vehicle: saline); 5 % of control and 9 % of control and 28 % of control (dose: 100.0 mg/kg/injection, schedule: Q04DX003 (ip), vehicle: saline); 4 % of control and 7 % of control (dose: 125.0 mg/kg/injection, schedule: Q04DX003 (ip), vehicle: saline).

On to `COc1cc2c(c(OC)c1O)-c1ccc(OC)c(=O)cc1[C@@H](NC(=O)C(F)(F)F)CC2`, for which the T/C is, setting by setting: (dose: 2.5 mg/kg/injection, schedule: Q04DX003 (ip), vehicle: Klucel (hydroxypropylcellulose) (HPC)) 62 % of control; (dose: 5.0 mg/kg/injection, schedule: Q04DX003 (ip), vehicle: Klucel (hydroxypropylcellulose) (HPC)) 60 % of control; (dose: 10.0 mg/kg/injection, schedule: Q04DX003 (ip), vehicle: Klucel (hydroxypropylcellulose) (HPC)) 35 % of control; (dose: 20.0 mg/kg/injection, schedule: Q04DX003 (ip), vehicle: Klucel (hydroxypropylcellulose) (HPC)) 34 % of control.

With `N/C(=N\O)c1cn(C2OC(CO)C(O)C2O)c2ncnc(N)c12` (stereo not given), the T/C runs as follows: (dose: 5.0 mg/kg/injection, schedule: Q04DX003 (sc), vehicle: Klucel (hydroxypropylcellulose) (HPC)) 91 % of control; (dose: 10.0 mg/kg/injection, schedule: Q04DX003 (sc), vehicle: Klucel (hydroxypropylcellulose) (HPC)) 70 % of control.

`CCCC(=O)OCc1cc(=O)n(C)c2c3c4c(cc12)c(C)cc(=O)n4CO3`: the T/C is, setting by setting: (dose: 50.0 mg/kg/injection, schedule: Q01DX010 (sc), vehicle: Klucel (hydroxypropylcellulose) (HPC)) 79 % of control; (dose: 100.0 mg/kg/injection, schedule: Q01DX010 (sc), vehicle: Klucel (hydroxypropylcellulose) (HPC)) 75 % of control; (dose: 200.0 mg/kg/injection, schedule: Q01DX010 (sc), vehicle: Klucel (hydroxypropylcellulose) (HPC)) 64 % of control; (dose: 400.0 mg/kg/injection, schedule: Q01DX010 (sc), vehicle: Klucel (hydroxypropylcellulose) (HPC)) 66 % of control; (dose: 800.0 mg/kg/injection, schedule: Q01DX010 (sc), vehicle: Klucel (hydroxypropylcellulose) (HPC)) 61 % of control.

As to `CC1=C(/C=C/C(C)=C/C=C/C(C)=C/C(=O)Nc2ccc(O)cc2)C(C)(C)CCC1`, the T/C runs as follows: (dose: 100.0 mg/kg/injection, schedule: Q04DX003 (ip), vehicle: saline with Tween-80) 67 % of control; (dose: 200.0 mg/kg/injection, schedule: Q04DX003 (ip), vehicle: saline with Tween-80) 81 % of control; (dose: 400.0 mg/kg/injection, schedule: Q04DX003 (ip), vehicle: saline with Tween-80) 58 % of control; (dose: 800.0 mg/kg/injection, schedule: Q04DX003 (ip), vehicle: saline with Tween-80) 69 % of control.

Take `CC(CNC(=O)C12CC3CC(CC(C3)C1)C2)NC(=O)C12CC3CC(CC(C3)C1)C2` (stereo not given): the T/C is, setting by setting: (dose: 75.0 mg/kg/injection, schedule: Q04DX003 (ip), vehicle: DMSO) 82 % of control; (dose: 150.0 mg/kg/injection, schedule: Q04DX003 (ip), vehicle: DMSO) 95 % of control; (dose: 300.0 mg/kg/injection, schedule: Q04DX003 (ip), vehicle: DMSO) 106 % of control; (dose: 600.0 mg/kg/injection, schedule: Q04DX003 (ip), vehicle: DMSO) 105 % of control.

For the compound `O=C(Nc1ccccc1CCl)Nc1ccccc1CCl`, the T/C (dose: 1200.0 mg/kg/injection, schedule: Q04DX003 (ip), vehicle: saline with Tween-80) was 9 % of control and 12 % of control and 20 % of control.

`NC(CSSCC(N)C(=O)O)C(=O)O` (stereo not given): the T/C reads like this: under setting [1], 88 % of control; under setting [2], 92 % of control; under setting [3], 104 % of control; (dose: 2400.0 mg/kg/injection, schedule: Q04DX003 (ip), vehicle: saline) 80 % of control.

On to `O=C(Nc1cc(Cl)ccc1C(=O)O)c1cccc(C[n+]2ccccc2)c1`, for which the T/C was 109 % of control (dose: 150.0 mg/kg/injection, schedule: Q04DX003 (ip), vehicle: saline with Tween-80); 109 % of control (dose: 300.0 mg/kg/injection, schedule: Q04DX003 (ip), vehicle: saline with Tween-80); 82 % of control (dose: 600.0 mg/kg/injection, schedule: Q04DX003 (ip), vehicle: saline with Tween-80).

For the compound `C/C(=N\NC(=S)N1CC2CCC(CC2)C1)c1cccc(C)n1`, the T/C was 77 % of control under setting [7], 62 % of control under setting [8] and 78 % of control under setting [9].

In the case of `CS(=O)(=O)CS(=O)(=O)OCCF`, the T/C by setting is: (dose: 6.25 mg/kg/injection, schedule: Q04DX003 (ip), vehicle: saline) 104 % of control; (dose: 12.5 mg/kg/injection, schedule: Q04DX003 (ip), vehicle: saline) 84 % of control; under setting [6], 69 % of control.

On to `C1CC[N-]CC1.C1CC[N-]CC1.C1CC[N-]CC1.[Cl][Rh]([Cl])[Cl]`, for which the T/C is 90 % of control under setting [4]; 90 % of control under setting [5]; 75 % of control (dose: 300.0 mg/kg/injection, schedule: Q04DX003 (sc), vehicle: saline).

Consider `COc1cc(/C=C/[N+](=O)[O-])cc(Br)c1OC`, for which the T/C was 81 % of control (dose: 6.25 mg/kg/injection, schedule: Q04DX003 (ip), vehicle: saline with Tween-80); 104 % of control under setting [7]; 92 % of control and 105 % of control under setting [8]; 96 % of control under setting [9].
